Assay results reported in patent publication US10105357B2, “Indication of antibiotic drugs for preparation of cancer inhibition pharmaceutical composition” (LAUNX BIOMEDICAL CO., LTD., priority 2014, dated 2018).
Structures can show the parent of a compound that is named as a salt. Where two headings read alike, the source gives them in different places.

Key:
[1] = system: BCC (basal cell carcinoma); experiment: Cell viability analysis, skin cancer BCC; type: cell-based, human; conditions: Homo sapiens, 72 h; BCC; repeated experiment; read-out: The results of antibiotic drug inhibiting cancer cell lines (cell viability analysis), BCC
[2] = system: HL-60 (Acute Promyelocytic Leukemia); experiment: Cell viability analysis, leukemia HL-60; type: cell-based, human; conditions: Homo sapiens, HL-60, 72 h, drug 10 μM, 72 hours, WST-1, OD450 nm; read-out: cell viability (survival rate), HL-60
[3] = system: MDA-MB-231 (Mammary Gland, Adenocarcinoma); experiment: Cell viability analysis, breast cancer MDA-MB-231; type: cell-based, human; conditions: Homo sapiens, MDA-MB-231, 72 h; MDA-MB231; repeated experiment; read-out: The results of antibiotic drug inhibiting cancer cell lines (cell viability analysis), MDA-MB231
[4] = system: T24; experiment: Cell viability analysis, bladder cancer T24; type: cell-based, human; conditions: Homo sapiens, T-24, 72 h; T24; repeated experiment; read-out: The results of antibiotic drug inhibiting cancer cell lines (cell viability analysis), T24
[5] = system: NIH: OVCAR-3; experiment: Cell viability analysis, ovarian cancer NIH: OVCAR-3; type: cell-based, human; conditions: Homo sapiens, 72 h; NIH-OVCAR-3; repeated experiment; read-out: The results of antibiotic drug inhibiting cancer cell lines (cell viability analysis), NIH-OVCAR-3
[6] = system: SAS (Tongue squamous cell carcinoma); experiment: Cell viability analysis, tongue cancer SAS; type: cell-based, human; conditions: Homo sapiens, 72 h; SAS; repeated experiment; read-out: The results of antibiotic drug inhibiting cancer cell lines (cell viability analysis), SAS
[7] = system: cancer cell lines; experiment: Cell viability analysis (WST-1) on cancer cell lines; type: cell-based, human; conditions: drug 10 μM, 72 hours, WST-1; Table 3
[8] = system: HepG2 (Hepatocellular Carcinoma); experiment: Cell viability analysis, hepatic cancer HepG2; type: cell-based, human; conditions: Homo sapiens, HepG2, 72 h
[9] = system: A549 (Lung Adenocarcinoma); experiment: Cell viability analysis, lung cancer A549; type: cell-based, human; conditions: Homo sapiens, A549, 72 h
[10] = system: A375 (Amelanotic Melanoma); experiment: Cell viability analysis, skin cancer A375; type: cell-based, human; conditions: Homo sapiens, A-375, 72 h
[11] = system: HeLa (Cervix Adenocarcinoma); experiment: Cell viability analysis, cervical cancer HeLa; type: cell-based, human; conditions: Homo sapiens, HeLa, 72 h, HeLa
[12] = system: AGS (Gastric Adenocarcinoma); experiment: Cell viability analysis, gastric cancer AGS; type: cell-based, human; conditions: Homo sapiens, 72 h
[13] = system: LoVo (Colorectal Adenocarcinoma); experiment: Cell viability analysis, colon cancer LoVo; type: cell-based, human; conditions: Homo sapiens, LoVo, 72 h
[14] = system: TSGH-8301 (Urinary Bladder Carcinoma); experiment: Cell viability analysis, bladder cancer TSGH-8301; type: cell-based, human; conditions: Homo sapiens, 72 h
[15] = system: MKN-45 (Gastric Adenocarcinoma); experiment: Cell viability analysis, gastric cancer MKN-45; type: cell-based, human; conditions: Homo sapiens, MKN-45, 72 h
[16] = system: Hep3B (hepatocellular carcinoma); experiment: Cell viability analysis, hepatic cancer Hep3B; type: cell-based, human; conditions: Homo sapiens, 72 h; Hep3B; repeated experiment; read-out: The results of antibiotic drug inhibiting cancer cell lines (cell viability analysis), Hep3B
[17] = system: AsPC-1; experiment: Cell viability analysis, pancreatic cancer AsPC-1; type: cell-based, human; conditions: Homo sapiens, ASPC1, 72 h; AsPC-1; repeated experiment; read-out: The results of antibiotic drug inhibiting cancer cell lines (cell viability analysis), AsPC-1
[18] = system: MCF7 (Mammary Gland, Adenocarcinoma); experiment: Cell viability analysis, breast cancer MCF7; type: cell-based, human; conditions: Homo sapiens, MCF7, 72 h
[19] = system: C-33A (Cervical carcinoma); experiment: Cell viability analysis, cervical cancer C-33A; type: cell-based, human; conditions: Homo sapiens, 72 h; C-33A; repeated experiment; read-out: The results of antibiotic drug inhibiting cancer cell lines (cell viability analysis), C-33A
[20] = system: TOV-21G; experiment: Cell viability analysis, ovarian cancer TOV-21G; type: cell-based, human; conditions: Homo sapiens, TOV21G, 72 h; TOV-21G; repeated experiment; read-out: The results of antibiotic drug inhibiting cancer cell lines (cell viability analysis), TOV-21G
[21] = system: HI650 (Lung Adenocarcinoma); experiment: Cell viability analysis, lung cancer HI650; type: cell-based, human; conditions: Homo sapiens, NCI-H1650, 72 h
[22] = system: U-2OS; experiment: Cell viability analysis, osteosarcoma U-2OS; type: cell-based, human; conditions: Homo sapiens, 72 h; U2OS; repeated experiment; read-out: The results of antibiotic drug inhibiting cancer cell lines (cell viability analysis), U2OS
[23] = system: 786-O (Renal adenocarcinoma); experiment: Cell viability analysis, renal cancer 786-O; type: cell-based, human; conditions: Homo sapiens, 786-0, 72 h; 786-O; repeated experiment; read-out: The results of antibiotic drug inhibiting cancer cell lines (cell viability analysis), 786-O
[24] = system: HCT116 (p53+) (Colorectal Carcinoma)
[25] = HepG2, repeated experiment, read-out: The results of antibiotic drug inhibiting cancer cell lines (cell viability analysis), HepG2
[26] = drug 10 μM, 72 hours, WST-1, OD450 nm, read-out: cell viability (survival rate), HepG2
[27] = A549, repeated experiment, read-out: The results of antibiotic drug inhibiting cancer cell lines (cell viability analysis), A549
[28] = drug 10 μM, 72 hours, WST-1, OD450 nm, read-out: cell viability (survival rate), A549
[29] = A375, repeated experiment, read-out: The results of antibiotic drug inhibiting cancer cell lines (cell viability analysis), A375
[30] = drug 10 μM, 72 hours, WST-1, OD450 nm, read-out: cell viability (survival rate), A375
[31] = repeated experiment, read-out: The results of antibiotic drug inhibiting cancer cell lines (cell viability analysis), HeLa
[32] = drug 10 μM, 72 hours, WST-1, OD450 nm, read-out: cell viability (survival rate), HeLa
[33] = AGS, repeated experiment, read-out: The results of antibiotic drug inhibiting cancer cell lines (cell viability analysis), AGS
[34] = drug 10 μM, 72 hours, WST-1, OD450 nm, read-out: cell viability (survival rate), AGS
[35] = read-out: The results of antibiotic drug inhibiting cancer cell lines (cell viability analysis), LoVo, repeated experiment
[36] = read-out: cell viability (survival rate), LoVo, drug 10 μM, 72 hours, WST-1, OD450 nm
[37] = TSGH-8301, repeated experiment, read-out: The results of antibiotic drug inhibiting cancer cell lines (cell viability analysis), TSGH-8301
[38] = drug 10 μM, 72 hours, WST-1, OD450 nm, read-out: cell viability (survival rate), TSGH
[39] = MKN-45, repeated experiment, read-out: The results of antibiotic drug inhibiting cancer cell lines (cell viability analysis), MKN-45
[40] = drug 10 μM, 72 hours, WST-1, OD450 nm, read-out: cell viability (survival rate), MKN-45
[41] = MCF-7, repeated experiment, read-out: The results of antibiotic drug inhibiting cancer cell lines (cell viability analysis), MCF-7
[42] = drug 10 μM, 72 hours, WST-1, OD450 nm, read-out: cell viability (survival rate), MCF7
[43] = H1650, repeated experiment, read-out: The results of antibiotic drug inhibiting cancer cell lines (cell viability analysis), H1650
[44] = drug 10 μM, 72 hours, WST-1, OD450 nm, read-out: cell viability (survival rate), H1650

Row | SMILES | viability at 10 µM [1] | viability at 10 µM [2] | viability at 10 µM [3] | viability at 10 µM [4] | viability at 10 µM [5] | viability at 10 µM [6] | viability at 10 µM [8, 25] | viability at 10 µM [8, 26] | viability at 10 µM [9, 27] | viability at 10 µM [9, 28] | viability at 10 µM [10, 29] | viability at 10 µM [10, 30] | viability at 10 µM [11, 31] | viability at 10 µM [11, 32] | viability at 10 µM [12, 33] | viability at 10 µM [12, 34] | viability at 10 µM [13, 35] | viability at 10 µM [13, 36] | viability at 10 µM [14, 37] | viability at 10 µM [14, 38] | further results
1 | CC(C)/N=c1\cc2n(-c3ccc(Cl)cc3)c3ccccc3nc-2cc1Nc1ccc(Cl)cc1 [Clofazimine] | 72.9% | 85% | 102% | 74.1% | 97.3% | 75.2% | 90.4% | 82.2% | 87.1% | 49.5% | 81.2% | 37.3% | 94.3% | 59.3% | 78.8% | 64.2% | 83.4% | 68.3% | 111% | 51.7% | inhibition effect on different cancer cell lines [7]: significant inhibition effect; viability at 10 µM [15, 39]: 108%; viability at 10 µM [15, 40]: 53.1%; viability at 10 µM [16]: 91.6%; viability at 10 µM [17]: 76.6%; viability at 10 µM [18, 41]: 74.2%; viability at 10 µM [18, 42]: 51.2%; viability at 10 µM [19]: 111%; viability at 10 µM [20]: 65.1%; viability at 10 µM [21, 43]: 92.2%; viability at 10 µM [21, 44]: 74.4%; viability at 10 µM [22]: 80.6%; viability at 10 µM [23]: 82.5%
2 | COc1c(C)c2c(c(O)c1C/C=C(\C)CCC(=O)O)C(=O)OC2 [Mycophenolic (Mycophenolate), Mycophenolic] | 44.6% | 65.6% | 56.9% | 48.2% | 59% | 43.2% | 62.1% | 72.9% | 39% | 80.6% | 28.9% | 57.4% | 46.1% | 90.7% | 31.7% | 57.8% | 58.6% | 70.1% | 57.5% | 40.3% | viability at 10 µM [15, 39]: 64.9%; viability at 10 µM [15, 40]: 61.7%; viability at 10 µM [16]: 66.8%; viability at 10 µM [17]: 48.1%; viability at 10 µM [18, 41]: 70.3%; viability at 10 µM [18, 42]: 120%; viability at 10 µM [19]: 51.8%; viability at 10 µM [20]: 40.3%; viability at 10 µM [21, 43]: 54.5%; viability at 10 µM [21, 44]: 83.1%; viability at 10 µM [22]: 43.2%; viability at 10 µM [23]: 24.7%; viability [24]: 43.1%
3 | CN(C)CCC=C1c2ccccc2CCc2ccccc21 [Amitriptyline HCl] | 113% | 81.4% | 106% | 97.5% | 104% | 67.5% | 106% | 106% | 73.3% | 69.3% | 94.3% | 84.8% | 111% | 90.6% | 146% | 61.5% | 90.5% | 96.5% | 157% | 133% | inhibition effect on different cancer cell lines [7]: significant inhibition effect; viability at 10 µM [15, 39]: 135%; viability at 10 µM [15, 40]: 102%; viability at 10 µM [16]: 124%; viability at 10 µM [17]: 73.1%; viability at 10 µM [18, 41]: 67.7%; viability at 10 µM [18, 42]: 64.8%; viability at 10 µM [19]: 100%; viability at 10 µM [20]: 118%; viability at 10 µM [21, 43]: 111%; viability at 10 µM [21, 44]: 64.4%; viability at 10 µM [22]: 68.5%; viability at 10 µM [23]: 85.5%
